Measured values reported in PMC5446775, “Interactions of 172 plant extracts with human organic anion transporter 1 (SLC22A6) and 3 (SLC22A8): a study on herb-drug interactions” (PeerJ, 2017).
“And” between values parts separate entries of the source, which are not always exact repeats. Equal values may be shown once. One block for each molecule: values may come before it.

Tests used:
hOAT3 = molecular target: T1, hOAT3 (Homo sapiens, UniProt Q8TCC7); test: Time course and uptake kinetics of 6-CF in HEK-OAT3 cells
T1 sequence (Q8TCC7 1-542): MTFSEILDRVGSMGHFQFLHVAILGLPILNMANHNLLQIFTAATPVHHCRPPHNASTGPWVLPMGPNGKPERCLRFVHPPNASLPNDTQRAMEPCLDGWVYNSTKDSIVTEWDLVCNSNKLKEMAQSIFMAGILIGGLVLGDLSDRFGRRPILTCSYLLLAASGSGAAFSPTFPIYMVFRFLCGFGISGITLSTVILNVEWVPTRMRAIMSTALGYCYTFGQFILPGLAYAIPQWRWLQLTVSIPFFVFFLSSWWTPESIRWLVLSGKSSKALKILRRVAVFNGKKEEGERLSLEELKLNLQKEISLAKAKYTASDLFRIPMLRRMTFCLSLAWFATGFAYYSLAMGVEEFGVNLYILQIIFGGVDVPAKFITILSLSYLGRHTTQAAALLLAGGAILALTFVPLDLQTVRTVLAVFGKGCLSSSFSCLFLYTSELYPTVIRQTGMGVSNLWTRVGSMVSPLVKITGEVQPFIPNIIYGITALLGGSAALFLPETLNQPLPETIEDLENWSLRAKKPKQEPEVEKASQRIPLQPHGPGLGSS

HEK-EV cells = test: Time course of 6-CF uptake in HEK-EV cells; format: cell-based; parameters: unit not given beside the values
hOAT1 = molecular target: T2, hOAT1 (Homo sapiens, UniProt Q4U2R8); test: Time course and uptake kinetics of 6-CF in HEK-OAT1 cells
T2 sequence (Q4U2R8 1-563): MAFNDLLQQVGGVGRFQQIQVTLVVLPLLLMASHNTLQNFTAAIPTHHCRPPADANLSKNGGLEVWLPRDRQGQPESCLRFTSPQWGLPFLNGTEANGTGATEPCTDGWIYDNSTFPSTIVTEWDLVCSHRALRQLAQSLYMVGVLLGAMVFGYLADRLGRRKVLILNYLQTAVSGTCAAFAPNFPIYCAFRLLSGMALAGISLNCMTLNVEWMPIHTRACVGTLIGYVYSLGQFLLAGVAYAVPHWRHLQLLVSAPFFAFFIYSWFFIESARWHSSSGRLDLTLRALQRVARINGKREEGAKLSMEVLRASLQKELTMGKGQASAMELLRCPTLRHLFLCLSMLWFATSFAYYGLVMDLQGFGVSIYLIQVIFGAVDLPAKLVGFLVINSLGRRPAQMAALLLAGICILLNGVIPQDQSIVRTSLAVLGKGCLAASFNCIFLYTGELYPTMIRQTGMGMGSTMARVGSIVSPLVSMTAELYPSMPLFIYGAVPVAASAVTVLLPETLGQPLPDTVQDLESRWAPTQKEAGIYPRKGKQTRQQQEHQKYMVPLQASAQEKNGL

[1] = substrate: O=C(O)c1ccc(C(=O)O)c(-c2c3ccc(=O)cc-3oc3cc(O)ccc23)c1; test: cells, lysate or membranes; conditions: pH 7.2
[2] = other: HEK-OAT1, 6-CF 0–500 μM, 4 min
[3] = other: HEK-OAT3, 6-CF 0–500 μM, 10 min

- 6-CF uptake, time course (replicates) (hOAT3; HEK-OAT3, 0 min): -0.2934 and -0.3139 and -0.3557
- 6-CF uptake, saturation curve (replicates) (hOAT3; HEK-OAT3, 6-CF 0.4882813 uM): 0.3918 and 0.3329 and 0.4388
- 6-CF uptake, saturation curve (replicates) (hOAT3; HEK-OAT3, 6-CF 0.9765625 uM): 0.698 and 0.5037 and 0.6877
- 6-CF uptake, saturation curve (replicates) (hOAT3; HEK-OAT3, 6-CF 1.953125 uM): 1.795 and 1.575 and 1.458
- 6-CF uptake, saturation curve (replicates) (hOAT3; HEK-OAT3, 6-CF 3.90625 uM): 4.35 and 4.472 and 4.585
- 6-CF uptake, saturation curve (replicates) (hOAT3; HEK-OAT3, 6-CF 7.8125 uM): 6.975 and 7.312 and 7.453
- 6-CF uptake, saturation curve (replicates) (hOAT3; HEK-OAT3, 6-CF 15.625 uM): 11.68 and 13.8 and 13.42
- 6-CF uptake, saturation curve (replicates) (hOAT3; HEK-OAT3, 6-CF 31.25 uM): 16.87 and 19.83 and 17.42
- 6-CF uptake, saturation curve (replicates) (hOAT3; HEK-OAT3, 6-CF 62.5 uM): 24.87 and 28.11 and 27.05
- 6-CF uptake, saturation curve (replicates) (hOAT3; HEK-OAT3, 6-CF 125 uM): 31.12 and 34.21 and 34.22
- 6-CF uptake, saturation curve (replicates) (hOAT3; HEK-OAT3, 6-CF 250 uM): 38.59 and 48.68 and 49.93
- 6-CF uptake, saturation curve (replicates) (hOAT3; HEK-OAT3, 6-CF 500 uM): 59.67 and 68.36 and 60.32
- 6-CF uptake, time course (replicates) (hOAT3; HEK-OAT3, 1 min): 15.96 and 14.63 and 12.89
- 6-CF uptake, time course (replicates) (hOAT3; HEK-OAT3, 3 min): 23.66 and 23.83 and 22.4238
- 6-CF uptake, time course (replicates) (hOAT3; HEK-OAT3, 5 min): 30.9 and 31.16 and 28.05
- 6-CF uptake, time course (replicates) (hOAT3; HEK-OAT3, 7 min): 39.99 and 36.19 and 41.91
- 6-CF uptake, time course (replicates) (hOAT3; HEK-OAT3, 10 min): 50.24 and 52.458 and 60.541
- 6-CF uptake, time course (replicates) (hOAT3; HEK-OAT3, 15 min): 52.72 and 56.05 and 66.23
- 6-CF uptake, time course (replicates) (hOAT3; HEK-OAT3, 20 min): 78 and 76.09 and 111.922
- 6-CF uptake, saturation curve (replicates) (hOAT1; HEK-OAT1, 6-CF 0.4882813 uM): 7.173 and 7.446 and 6.987
- 6-CF uptake, saturation curve (replicates) (hOAT1; HEK-OAT1, 6-CF 0.9765625 uM): 12.8274 and 13.23 and 13
- 6-CF uptake, saturation curve (replicates) (hOAT1; HEK-OAT1, 6-CF 1.953125 uM): 27.87 and 28.3406 and 28.05
- 6-CF uptake, saturation curve (replicates) (hOAT1; HEK-OAT1, 6-CF 3.90625 uM): 46.16 and 53.71 and 47.47
- 6-CF uptake, saturation curve (replicates) (hOAT1; HEK-OAT1, 6-CF 7.8125 uM): 70.1 and 79.19 and 68.4603
- 6-CF uptake, saturation curve (replicates) (hOAT1; HEK-OAT1, 6-CF 15.625 uM): 99.74 and 104.681 and 93.41
- 6-CF uptake, saturation curve (replicates) (hOAT1; HEK-OAT1, 6-CF 31.25 uM): 121.9009 and 125.5377 and 115.7964
- 6-CF uptake, saturation curve (replicates) (hOAT1; HEK-OAT1, 6-CF 62.5 uM): 137.2491 and 143.8246 and 138.2214
- 6-CF uptake, saturation curve (replicates) (hOAT1; HEK-OAT1, 6-CF 125 uM): 148.3736 and 150.9828 and 144.0527
- 6-CF uptake, saturation curve (replicates) (hOAT1; HEK-OAT1, 6-CF 250 uM): 164.0673 and 159.2171 and 152.7382
- 6-CF uptake, saturation curve (replicates) (hOAT1; HEK-OAT1, 6-CF 500 uM): 180.965 and 184.434 and 169.8854
- 6-CF uptake, time course (replicates) (hOAT1; HEK-OAT1, 1 min): 103.0408 and 111.2811 and 116.9642
- 6-CF uptake, time course (replicates) (hOAT1; HEK-OAT1, 2 min): 184.2101 and 188.6327 and 203.3025
- 6-CF uptake, time course (replicates) (hOAT1; HEK-OAT1, 4 min): 263.4748 and 273.8167 and 274.8526
- 6-CF uptake, time course (replicates) (hOAT1; HEK-OAT1, 6 min): 366.3584 and 347.2089 and 351.4604
- 6-CF uptake, time course (replicates) (hOAT1; HEK-OAT1, 8 min): 433.3665 and 398.0952 and 430.7222
- 6-CF uptake, time course (replicates) (hOAT1; HEK-OAT1, 10 min): 468.8556 and 433.6342 and 503.1246
- 6-CF uptake, time course (replicates) (hOAT1; HEK-OAT1, 15 min): 515.439 and 498.8523
Molecule: O=C(O)c1ccc(C(=O)O)c(-c2c3ccc(=O)cc-3oc3cc(O)ccc23)c1 [6-CF, 6-Carboxyfluorescein]
- 6-CF uptake, time course (replicates) (HEK-EV cells; EV (run with HEK-OAT3), 0 min): -0.296 and -0.1638 and -0.3041
- 6-CF uptake, time course (replicates) (HEK-EV cells; EV (run with HEK-OAT3), 1 min): 0.1864 and 0.1215 and 0.1926
- 6-CF uptake, time course (replicates) (HEK-EV cells; EV (run with HEK-OAT3), 3 min): 1.062 and 1.738 and 0.6624
- 6-CF uptake, time course (replicates) (HEK-EV cells; EV (run with HEK-OAT3), 5 min): 1.6 and 1.946 and 1.9
- 6-CF uptake, time course (replicates) (HEK-EV cells; EV (run with HEK-OAT3), 7 min): 3.081 and 4.38 and 4.257
- 6-CF uptake, time course (replicates) (HEK-EV cells; EV (run with HEK-OAT3), 10 min): 12.29 and 7.712 and 11.67
- 6-CF uptake, time course (replicates) (HEK-EV cells; EV (run with HEK-OAT3), 15 min): 22.75 and 12.81 and 21.0992
- 6-CF uptake, time course (replicates) (HEK-EV cells; EV (run with HEK-OAT3), 20 min): 40.6 and 70.13 and 42.87
- 6-CF uptake, time course (replicates) (HEK-EV cells; HEK-EV (run with HEK-OAT1), 1 min): 2.029 and 2.127 and 1.449
- 6-CF uptake, time course (replicates) (HEK-EV cells; HEK-EV (run with HEK-OAT1), 2 min): 3.517 and 2.496
- 6-CF uptake, time course (replicates) (HEK-EV cells; HEK-EV (run with HEK-OAT1), 4 min): 3.274 and 1.899
- 6-CF uptake, time course (replicates) (HEK-EV cells; HEK-EV (run with HEK-OAT1), 6 min): 2.9 and 5.179 and 2.231
- 6-CF uptake, time course (replicates) (HEK-EV cells; HEK-EV (run with HEK-OAT1), 8 min): 2.807 and 2.226 and 2.134
- 6-CF uptake, time course (replicates) (HEK-EV cells; HEK-EV (run with HEK-OAT1), 10 min): 6.849 and 3.392
- 6-CF uptake, time course (replicates) (HEK-EV cells; HEK-EV (run with HEK-OAT1), 15 min): 2.156 and 2.367 and 2.88

B1: hOAT1 (Homo sapiens) (protein)
chain: MAFNDLLQQVGGVGRFQQIQVTLVVLPLLLMASHNTLQNFTAAIPTHHCRPPADANLSKNGGLEVWLPRDRQGQPESCLRFTSPQWGLPFLNGTEANGTGATEPCTDGWIYDNSTFPSTIVTEWDLVCSHRALRQLAQSLYMVGVLLGAMVFGYLADRLGRRKVLILNYLQTAVSGTCAAFAPNFPIYCAFRLLSGMALAGISLNCMTLNVEWMPIHTRACVGTLIGYVYSLGQFLLAGVAYAVPHWRHLQLLVSAPFFAFFIYSWFFIESARWHSSSGRLDLTLRALQRVARINGKREEGAKLSMEVLRASLQKELTMGKGQASAMELLRCPTLRHLFLCLSMLWFATSFAYYGLVMDLQGFGVSIYLIQVIFGAVDLPAKLVGFLVINSLGRRPAQMAALLLAGICILLNGVIPQDQSIVRTSLAVLGKGCLAASFNCIFLYTGELYPTMIRQTGMGMGSTMARVGSIVSPLVSMTAELYPSMPLFIYGAVPVAASAVTVLLPETLGQPLPDTVQDLESRWAPTQKEAGIYPRKGKQTRQQQEHQKYMVPLQASAQEKNGL
- Km [1, 2]: 10.86 ± 0.64 µM
- Vmax [1, 2]: 168.5 ± 2.27 pmol/mg protein/min

B2: hOAT3 (Homo sapiens) (protein)
chain: MTFSEILDRVGSMGHFQFLHVAILGLPILNMANHNLLQIFTAATPVHHCRPPHNASTGPWVLPMGPNGKPERCLRFVHPPNASLPNDTQRAMEPCLDGWVYNSTKDSIVTEWDLVCNSNKLKEMAQSIFMAGILIGGLVLGDLSDRFGRRPILTCSYLLLAASGSGAAFSPTFPIYMVFRFLCGFGISGITLSTVILNVEWVPTRMRAIMSTALGYCYTFGQFILPGLAYAIPQWRWLQLTVSIPFFVFFLSSWWTPESIRWLVLSGKSSKALKILRRVAVFNGKKEEGERLSLEELKLNLQKEISLAKAKYTASDLFRIPMLRRMTFCLSLAWFATGFAYYSLAMGVEEFGVNLYILQIIFGGVDVPAKFITILSLSYLGRHTTQAAALLLAGGAILALTFVPLDLQTVRTVLAVFGKGCLSSSFSCLFLYTSELYPTVIRQTGMGVSNLWTRVGSMVSPLVKITGEVQPFIPNIIYGITALLGGSAALFLPETLNQPLPETIEDLENWSLRAKKPKQEPEVEKASQRIPLQPHGPGLGSS
- Km [1, 3]: 112.9 ± 14.24 µM
- Vmax [1, 3]: 71.89 ± 3.42 pmol/mg protein/min
